Here are results for two compounds from US20250313564A1, “ACIDIC SALT OR CRYSTAL FORM OF NITROGEN-CONTAINING FUSED RING DERIVATIVE INHIBITOR, AND PREPARATION METHOD THEREFOR AND USE THEREOF” (SHANGHAI HANSOH BIOMEDICAL CO., LTD., priority 2022, published 2025).

For series [1], the system named is luteinizing hormone (LH) in plasma of bilaterally ovariectomized (OVX) rats. Kind of series: Effect on luteinizing hormone (LH) content in plasma of bilaterally ovariectomized (OVX) rats. Particulars: oral 30 mg/kg, plasma LH 0-8 h. It is filed as in vivo. The source says: The purpose of this test example is to measure the effect of compounds on luteinizing hormone (LH) in plasma of bilaterally ovariectomized (OVX) rats.
• CMCNa (30036365, Sinopharm Chemical Reagent Co., Ltd.); • Tween 80 (30189828, Sinopharm Chemical Reagent Co., Ltd.); • Rat LH ELISA Kit (S-type) purchased from Shibayagi Japan, with catalog number of AKRLH-010S, comprising Assay buffer C, Sample dilution buffer G, Washing buffer, biotinylated anti-LHα antibody, HRP-conjugated streptavidin and Chromogen (TMB).
Bilaterally ovariectomized SD rats, aged 10 weeks, female, purchased from Beijing Vital River Laboratory Animal Technology Co., Ltd. The animals were kept in SPF-grade animal room, with 5 SD rats/cage. […]
Sample detection: All reagents, samples and ELISA plates were transferred to room temperature 20° C.-25° C. and equilibrated for at least 30 min, and dissolution, vortex and centrifugation were performed for later use. […] The OD value of each well was read using the microplate reader at a wavelength of 450 nm.
Graphpad was used to draw a standard curve, and sample concentrations were calculated. If the dilution was performed during the sample detection, the calculated sample concentration needed to be multiplied by the corresponding dilution ratio in the final calculation, which was the actual concentration of the sample.

The nature of series [2]: Stability of sample of crystal form A (illumination, high temperature, high humidity). The series is classed as physicochemical. The method, then:
The free base crystal form A of compound 3 of the present invention was taken to prepare a sample, the sample was placed under the conditions of illumination 5000 lx, high temperature 60° C., high humidity 92.5% RH, and high temperature and high humidity 50° C. 75% RH, the 5-day stability and 10-day stability were investigated, a HPLC external standard method was used to determine the content, and a chromatographic peak area normalization method was used to calculate the change in related substances.

Series [3] can be described thus: Hygroscopicity of sample of crystal form A. The series is classed as physicochemical. Here is the method:
The free base crystal form A of compound 3 was placed in saturated water vapor at different relative humidities to allow the compound to reach a dynamic equilibrium with the water vapor, and the percentage of weight gain after moisture absorption of the compound after equilibrium was calculated.

[4] abbreviates: high humidity 92.5% RH, 10 days.
The mark [5] stands for this setting: high temperature 60° C., 5 days.
Setting [6] is: high temperature 60° C., 10 days.
Setting [7] is: high temperature and high humidity 50° C. 75% RH, 5 days.
Where [8] appears, read: high temperature and high humidity 50° C. 75% RH, 10 days.

Turning to `[2H]c1cc(C(=O)N2CCn3c(-c4nc(Cl)ns4)nnc3[C@H]2C)ccc1F` [Compound 3, (R)-(3-(3-chloro-1,2,4-thiadiazol-5-yl)-8-methyl-5,6-dihydro-[1,2,4]triazolo[4,3-a]pyrazin-7(8H)-yl)(4-fluorophenyl-3-d)methanone], the “ΣAUC (ΔLH/LH · h, Mean ± SD)” value in series [1] was −5.44 ± 3.02 ΔLH/LH · h.

In the case of `[2H]c1cc(C(=O)N2CCn3c(-c4nc(Cl)ns4)nnc3[C@H]2C)ccc1F` [free base crystal form A, (R)-(3-(3-chloro-1,2,4-thiadiazol-5-yl)-8-methyl-5,6-dihydro-[1,2,4]triazolo[4,3-a]pyrazin-7(8H)-yl)(4-fluorophenyl-3-d)methanone], the “% Increase in total impurity” value in series [2] (high humidity 92.5% RH, 5 days) is reported as below 0.02%; in series [2] (setting [4]) it was below 0.02%; in series [2] (setting [5]) it was 0.12%; in series [2] (setting [6]) it was below 0.02%; in series [2] (setting [7]), below 0.02%; in series [2] (setting [8]), below 0.02%. In addition, the “% Increase in total impurity” value in series [2] (illumination 5000 lx, 5 days) is reported as below 0.02%; in series [2] (illumination 5000 lx, 10 days), below 0.02%. Besides, the “% Maximum increase in single impurity” value in series [2] (high humidity 92.5% RH, 5 days) is on record as 0.06%; in series [2] (setting [4]), 0.07%; in series [2] (setting [5]), 0.07%; in series [2] (setting [6]), 0.07%; in series [2] (setting [7]), 0.03%; in series [2] (setting [8]), below 0.02%. Further, the “% Maximum increase in single impurity” value is 0.03% in series [2] (illumination 5000 lx, 5 days) and 0.05% in series [2] (illumination 5000 lx, 10 days). Also, in series [3] (2 cycles, 0-95% relative humidity), the “crystal form change (XRPD) after moisture absorption and desorption” value was “no crystal form transformation”. The “hygroscopicity (in words)” value in series [3] (RH 80%) was “weak hygroscopicity”. Further, the “weight gain after moisture absorption” value in series [3] (RH 80%) was “about 0.2720%”.
